Data: patent US12146167B2 (priority 2021, dated 2024)

Experiments:
Details in all cases: pH 7.5
[1] = system: Cg_MetY_P2T (O-acetylhomoserine sulfhydrylase variant metY_P2T, SEQ ID NO: 6); type: biochemical, Corynebacterium glutamicum ATCC 13032
[2] = system: Cv_MetZ (O-succinylhomoserine sulfhydrylase metZ, SEQ ID NO: 10); type: biochemical, Chromobacterium violaceum ATCC 12472
[3] = system: Hn_MetZ (O-succinylhomoserine sulfhydrylase metZ, SEQ ID NO: 14); type: biochemical, Hyphomonas neptunium ATCC 15444
[4] = system: Cg_MetY (O-acetylhomoserine sulfhydrylase metY, SEQ ID NO: 2); type: biochemical, Corynebacterium glutamicum ATCC 13032

Measured: Product

CS [MM, methyl mercaptane]
yes: all assays above
